Reference: PMC3579662 (Journal of the American Chemical Society, 2013)

How the values were obtained:
[1] = biological target: T1, alanine racemase (AR); light protiated form HAR (Geobacillus stearothermophilus, UniProt P10724); assay: steady-state racemization kinetics, competitive inhibition; format: biochemical
[2] = biological target: T1, alanine racemase (AR); light protiated form HAR; assay: Michaelis-Menten saturation curves; format: biochemical; settings: pH 8.9, 25 °C; light (protiated) enzyme

T1 sequence (P10724 whole entry): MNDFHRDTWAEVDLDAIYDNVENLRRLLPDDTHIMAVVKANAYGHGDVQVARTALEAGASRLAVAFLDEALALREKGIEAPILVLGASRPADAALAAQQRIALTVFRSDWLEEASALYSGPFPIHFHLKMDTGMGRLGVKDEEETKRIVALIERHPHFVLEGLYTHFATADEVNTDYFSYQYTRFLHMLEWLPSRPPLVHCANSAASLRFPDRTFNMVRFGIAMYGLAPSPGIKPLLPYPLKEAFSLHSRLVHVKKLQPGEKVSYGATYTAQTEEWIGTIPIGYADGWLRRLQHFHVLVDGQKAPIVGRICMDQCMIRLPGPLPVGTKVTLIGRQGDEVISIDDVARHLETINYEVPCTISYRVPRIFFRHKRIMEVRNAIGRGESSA

Ki [1] [mM] | SMILES | KM [2]
24 ± 1 | CC(C)(N)C(=O)O [2-methylalanine] | 
 | C[C@H](N)C(=O)O [L-alanine] | Michaelis-Menten saturation curves for ^HAR and ^DAR with protiated L- and D-alanine
 | C[C@@H](N)C(=O)O [D-alanine] | Michaelis-Menten saturation curves for ^HAR and ^DAR with protiated L- and D-alanine
